Experimental data taken from paper PMC7153899, “Anti-hyperglycemic activity of myricetin, through inhibition of DPP-4 and enhanced GLP-1 levels, is attenuated by co-ingestion with lectin-rich protein” (PLoS ONE, 2020).

Target: T1, Dipeptidyl peptidase-4 (DPP-4) (Homo sapiens, UniProt P27487)
T1 construct: gene DPP4; recombinant DPP-4 (human)
Assay: colorimetric enzyme assay with recombinant human DPP-4, gly-pro p-nitroanilide substrate, absorbance […] nm
Assay type: biochemical

T1 sequence (P27487 39-766): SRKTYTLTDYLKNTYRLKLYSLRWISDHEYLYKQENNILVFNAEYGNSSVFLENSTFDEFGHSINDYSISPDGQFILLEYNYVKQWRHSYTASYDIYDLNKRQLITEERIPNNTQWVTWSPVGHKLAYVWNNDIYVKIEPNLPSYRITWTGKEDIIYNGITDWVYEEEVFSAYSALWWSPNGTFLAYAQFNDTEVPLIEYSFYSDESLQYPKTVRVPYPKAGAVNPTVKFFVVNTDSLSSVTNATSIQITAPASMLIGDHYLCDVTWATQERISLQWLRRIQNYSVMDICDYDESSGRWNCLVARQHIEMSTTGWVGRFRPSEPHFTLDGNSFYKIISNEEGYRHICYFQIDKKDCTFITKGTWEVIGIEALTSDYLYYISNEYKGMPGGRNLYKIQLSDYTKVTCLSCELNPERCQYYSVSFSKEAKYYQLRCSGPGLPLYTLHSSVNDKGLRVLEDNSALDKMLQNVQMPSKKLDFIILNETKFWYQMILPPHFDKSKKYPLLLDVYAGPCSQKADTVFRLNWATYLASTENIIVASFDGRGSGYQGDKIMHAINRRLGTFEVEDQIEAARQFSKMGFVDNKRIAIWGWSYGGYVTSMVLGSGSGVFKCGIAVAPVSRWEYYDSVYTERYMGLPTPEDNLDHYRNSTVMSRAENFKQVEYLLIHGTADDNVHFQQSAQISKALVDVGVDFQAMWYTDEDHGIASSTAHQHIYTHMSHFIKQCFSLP

`O=c1c(O)c(-c2cc(O)c(O)c(O)c2)oc2cc(O)cc(O)c12` [myricetin] was tested, and the IC50 was 4.8 ± 0.36 µM.
